In patent publication US11608335B2, “Somatostatin modulators and uses thereof” (CRINETICS PHARMACEUTICALS, INC., priority 2018, dated 2023):
Like-named read-outs stand apart in the source and are kept apart here.

How the values were obtained:
[1] = target: T1, human somatostatin receptor subtype 2 (Homo sapiens, UniProt P30874); assay: cAMP assay for SST2R (inhibition of cAMP via human SST2 receptor); type: cell-based; settings: Table B, read-out: SST2 potency
T1 construct: expressed in transfected cells
Excerpt: cAMP Assay Protocol for SST2R:

[2] = target: human somatostatin receptor subtype 5 (Homo sapiens, UniProt P35346); assay: cAMP assay for SST5R (inhibition of cAMP via human SST5 receptor)
[3] = SST5 over SST2, given as number (comparison compounds)
[4] = read-out: SST5 potency, inhibition of cAMP via human SST5 receptor, Table B

T1 sequence (P30874 whole entry): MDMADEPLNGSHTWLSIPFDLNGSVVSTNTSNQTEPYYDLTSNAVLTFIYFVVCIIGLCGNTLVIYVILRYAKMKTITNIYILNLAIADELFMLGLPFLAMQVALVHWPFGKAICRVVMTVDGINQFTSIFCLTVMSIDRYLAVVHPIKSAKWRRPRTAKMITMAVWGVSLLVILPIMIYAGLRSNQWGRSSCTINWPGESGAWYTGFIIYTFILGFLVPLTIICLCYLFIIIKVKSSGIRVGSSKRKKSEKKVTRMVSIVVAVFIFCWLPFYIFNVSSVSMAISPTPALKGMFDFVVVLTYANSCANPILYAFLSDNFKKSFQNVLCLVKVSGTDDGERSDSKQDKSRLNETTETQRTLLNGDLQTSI
human somatostatin receptor subtype 5, sequence (P35346 whole entry): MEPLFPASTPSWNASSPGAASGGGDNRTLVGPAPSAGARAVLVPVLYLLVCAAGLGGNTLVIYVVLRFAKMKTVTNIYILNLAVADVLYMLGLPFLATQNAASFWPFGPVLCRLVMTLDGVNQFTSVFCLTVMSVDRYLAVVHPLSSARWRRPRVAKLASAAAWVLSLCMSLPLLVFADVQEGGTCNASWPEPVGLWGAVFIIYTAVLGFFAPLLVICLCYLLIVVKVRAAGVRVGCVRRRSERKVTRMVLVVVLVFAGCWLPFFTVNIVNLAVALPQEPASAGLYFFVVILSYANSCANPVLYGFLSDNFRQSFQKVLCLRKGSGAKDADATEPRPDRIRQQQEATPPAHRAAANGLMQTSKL

In the case of `Cc1ccnc2nc(-c3cncc(-c4cccc(Cl)c4)c3N3CCC(N)CC3)[nH]c12`, the EC50 [1] is reported as 10 to 100 nM, the EC50 [2] is reported as over 1000 nM and the “Fold selectivity for SST5 vs SST2” value [2, 3] is reported as 0.009.

With `Cc1cccc(-c2cncc(-c3nc4c(C)cccc4[nH]3)c2N2CCC(N)CC2)c1` the EC50 [1] was under 10 nM, the EC50 [2] was over 1000 nM and the “Fold selectivity for SST5 vs SST2” value [2, 3] was 0.002.

In the case of `Cc1cc(F)cc(-c2cncc(-c3nc4cccc(Cl)c4[nH]3)c2N2CCC(N)CC2)c1`, the EC50 [1] is reported as under 10 nM, the EC50 [2] is reported as 100 to 1000 nM and the “Fold selectivity for SST5 vs SST2” value [2, 3] is reported as 0.0008.

For `Cc1cc(F)cc(-c2cncc(-c3nc4c(F)cc(F)cc4[nH]3)c2N2CC[C@H](N)C2)c1` (stereo in doubt) [Compound 2-194, 1-[3-(4,6-difluoro-1H-1,3-benzodiazol-2-yl)-5-(3-fluoro-5-methylphenyl)pyridin-4-yl]pyrrolidin-3-amine], the EC50 [1] was 100 to 1000 nM.

`Cc1cc(F)cc(-c2cncc(-c3nc4cc(F)ccc4[nH]3)c2N2CC(CN)C2)c1` [Compound 1-1, 1-{1-[3-(5-fluoro-1H-1,3-benzodiazol-2-yl)-5-(3-fluoro-5-methylphenyl)pyridin-4-yl]azetidin-3-yl}methanamine] gave an EC50 [1] of over 1000 nM.

`Cc1cc(F)cc(-c2cncc(-c3nc4c(F)cccc4[nH]3)c2N2CC(CN)C2)c1` [Compound 1-2, 1-{1-[3-(4-fluoro-1H-1,3-benzodiazol-2-yl)-5-(3-fluoro-5-methylphenyl)pyridin-4-yl]azetidin-3-yl}methanamine] was tested, and the EC50 [1] was over 1000 nM.

With `Cc1cc(F)cc(-c2cncc(-c3nc4cccc(Cl)c4[nH]3)c2N2CC(CN)C2)c1` [Compound 1-3, 1-{1-[3-(4-chloro-1H-1,3-benzodiazol-2-yl)-5-(3-fluoro-5-methylphenyl)pyridin-4-yl]azetidin-3-yl}methanamine] the EC50 [1] was 100 to 1000 nM, the EC50 [2] was under 10 nM and the “Fold selectivity for SST5 vs SST2” value ([2]; SST5 over SST2, class symbols) was “++ (++=100 to 499)”. For the same compound, the EC50 [2, 4] was under 10 nM.

`Cc1cc(F)cc(-c2cncc(-c3nc4cc(Cl)ccc4[nH]3)c2N2CC(CN)C2)c1` [Compound 1-4, 1-{1-[3-(5-chloro-1H-1,3-benzodiazol-2-yl)-5-(3-fluoro-5-methylphenyl)pyridin-4-yl]azetidin-3-yl}methanamine] was tested, and the EC50 [1] was over 1000 nM, the EC50 [2] was 10 to 100 nM and the “Fold selectivity for SST5 vs SST2” value ([2]; SST5 over SST2, class symbols) was “++ (++=100 to 499)”. The EC50 [2, 4] was 10 to 100 nM.

With `Cc1cc(F)cc(-c2cncc(-c3nc4cccc(C#N)c4[nH]3)c2N2CC(CN)C2)c1` [Compound 1-5, 2-{4-[3-(aminomethyl)azetidin-1-yl]-5-(3-fluoro-5-methylphenyl)pyridin-3-yl}-1H-1,3-benzodiazole-4-carbonitrile] the EC50 [1] was over 1000 nM, the EC50 [2] was 10 to 100 nM and the “Fold selectivity for SST5 vs SST2” value ([2]; SST5 over SST2, class symbols) was “+++ (+++=≥500)”. The EC50 [2, 4] was 10 to 100 nM.

`Cc1cc(F)cc(-c2cncc(-c3nc4c(F)c(F)ccc4[nH]3)c2N2CC(CN)C2)c1` [Compound 1-6, 1-{1-[3-(4,5-difluoro-1H-1,3-benzodiazol-2-yl)-5-(3-fluoro-5-methylphenyl)pyridin-4-yl]azetidin-3-yl}methanamine] showed an EC50 [1] of over 1000 nM.

For `Cc1cc(F)cc(-c2cncc(-c3nc4c(F)cc(F)cc4[nH]3)c2N2CC(CN)C2)c1` [Compound 1-7, 1-{1-[3-(4,6-difluoro-1H-1,3-benzodiazol-2-yl)-5-(3-fluoro-5-methylphenyl)pyridin-4-yl]azetidin-3-yl}methanamine], the EC50 [1] was over 1000 nM, the EC50 [2] was under 10 nM and the “Fold selectivity for SST5 vs SST2” value ([2]; SST5 over SST2, class symbols) was “+++ (+++=≥500)”. It also gave an EC50 [2, 4] of under 10 nM.

`Cc1cc(F)cc(-c2cncc(-c3nc4c(F)cc(F)cc4[nH]3)c2N2CC(C(C)N)C2)c1` (centres unmarked) [Compound 1-42, 1-{1-[3-(4,6-difluoro-1H-1,3-benzodiazol-2-yl)-5-(3-fluoro-5-methylphenyl)pyridin-4-yl]azetidin-3-yl}ethan-1-amine] showed an EC50 [1] of 100 to 1000 nM.

In the case of `CC(N)C1CN(c2c(-c3cc(F)cc(C#N)c3)cncc2-c2nc3c(F)cc(F)cc3[nH]2)C1` (centres unmarked) [Compound 1-64, 3-{4-[3-(1-aminoethyl)azetidin-1-yl]-5-(4,6-difluoro-1H-1,3-benzodiazol-2-yl)pyridin-3-yl}-5-fluorobenzonitrile], the EC50 [1] is reported as over 1000 nM.

Work on `Cc1cc(F)cc(-c2cncc(-c3nc4cc(F)cc(F)c4[nH]3)c2N2CCC(N)C2)c1` (centres unmarked) [Compound 2-1, 1-[3-(4,6-difluoro-1H-1,3-benzodiazol-2-yl)-5-(3-fluoro-5-methylphenyl)pyridin-4-yl]pyrrolidin-3-amine] yielded an EC50 [1] of 100 to 1000 nM.

`N[C@H]1CCN(c2c(-c3cc(F)cc(Cl)c3)cncc2-c2nc3c(F)cccc3[nH]2)C1` [Compound 2-3, (3 S)-1-[3-(3-chloro-5-fluorophenyl)-5-(4-fluoro-1H-1,3-benzodiazol-2-yl)pyridin-4-yl]pyrrolidin-3-amine] showed an EC50 [1] of 100 to 1000 nM.

`N#Cc1cc(F)cc(-c2cncc(-c3nc4c(F)cccc4[nH]3)c2N2CC[C@H](N)C2)c1` [Compound 2-8, 3-{4-[(3S)-3-aminopyrrolidin-1-yl]-5-(4-fluoro-1H-1,3-benzodiazol-2-yl)pyridin-3-yl}-5-fluorobenzonitrile] was tested, and the EC50 [1] was over 1000 nM.

Compound `N#Cc1cc(-c2cncc(-c3nc4c(Cl)cccc4[nH]3)c2N2CC[C@H](N)C2)ccc1F` [Compound 2-51, 5-{4-[(3S)-3-aminopyrrolidin-1-yl]-5-(4-chloro-1H-1,3-benzodiazol-2-yl)pyridin-3-yl}-2-fluorobenzonitrile] has an EC50 [1] of 100 to 1000 nM.

`Cn1c(-c2cncc(-c3ccnc(C#N)c3)c2N2CC[C@](C)(N)C2)nc2c(Cl)cccc21` [Compound 2-151, 4-[(3S)-3-amino-3-methylpyrrolidin-1-yl]-5-(4-chloro-1-methyl-1H-1,3-benzodiazol-2-yl)-[3,4′-bipyridine]-2′-carbonitrile] gave an EC50 [2] of under 10 nM.

`Cc1cccc2c1nc(-c1cncc(-c3ccnc(C#N)c3)c1N1CC[C@](C)(N)C1)n2C` [Compound 2-152, 4-[(3S)-3-amino-3-methylpyrrolidin-1-yl]-5-(1,4-dimethyl-1H-1,3-benzodiazol-2-yl)-[3,4′-bipyridine]-2′-carbonitrile] was tested, and the EC50 [2] was under 10 nM.

`Cn1c(-c2cncc(-c3cccc(C#N)c3)c2N2CC[C@](C)(N)C2)nc2c(F)cccc21` [Compound 2-153, 3-{4-[(3S)-3-amino-3-methylpyrrolidin-1-yl]-5-(4-fluoro-1-methyl-1H-1,3-benzodiazol-2-yl)pyridin-3-yl}benzonitrile] was tested, and the EC50 [2] was under 10 nM.

`Cc1cccc2[nH]c(-c3cncc(-c4ccnc(C(N)=O)c4)c3N3CC[C@](C)(N)C3)nc12` [Compound 2-156, 4-[(3S)-3-amino-3-methylpyrrolidin-1-yl]-5-(4-methyl-1H-1,3-benzodiazol-2-yl)-[3,4′-bipyridine]-2′-carboxamide] gave an EC50 [2] of under 10 nM.

With `N#Cc1cc(-c2cncc(-c3nc4cccc(C#N)c4[nH]3)c2N2CC[C@H](N)C2)ccc1F` [Compound 2-158, 2-{4-[(3S)-3-aminopyrrolidin-1-yl]-5-(3-cyano-4-fluorophenyl)pyridin-3-yl}-1H-1,3-benzodiazole-4-carbonitrile] the EC50 [2] was under 10 nM.

Compound `Cc1nccc2nc(-c3cncc(-c4ccc(F)c(C#N)c4)c3N3CCC(C)(N)C3)[nH]c12` (centres unmarked) [Compound 2-159, 5-[4-(3-amino-3-methylpyrrolidin-1-yl)-5-{4-methyl-3H-imidazo[4,5-c]pyridin-2-yl}pyridin-3-yl]-2-fluorobenzonitrile] has an EC50 [2] of under 10 nM.

Work on `CC1(N)CCN(c2c(-c3ccnc(C#N)c3)cncc2-c2nc3cccc(C#N)c3[nH]2)C1` (centres unmarked) [Compound 2-160, 4-(3-amino-3-methylpyrrolidin-1-yl)-5-(4-cyano-1H-1,3-benzodiazol-2-yl)-[3,4′-bipyridine]-2′-carbonitrile] yielded an EC50 [2] of under 10 nM.

Work on `N#Cc1cc(-c2cncc(-c3nc4cccc(Cl)c4[nH]3)c2N2CC[C@H](N)C2)ccn1` [Compound 2-161, 4-[(3S)-3-aminopyrrolidin-1-yl]-5-(4-chloro-1H-1,3-benzodiazol-2-yl)-[3,4′-bipyridine]-2′-carbonitrile] yielded an EC50 [2] of under 10 nM.

Work on `C[C@]1(N)CCN(c2c(-c3ccc(F)c(C#N)c3)cncc2-c2nc3ncc(F)cc3[nH]2)C1` [Compound 2-168, 5-{4-[(3S)-3-amino-3-methylpyrrolidin-1-yl]-5-{6-fluoro-1H-imidazo[4,5-b]pyridin-2-yl}pyridin-3-yl}-2-fluorobenzonitrile] yielded an EC50 [2] of under 10 nM.

`Cc1ccnc2[nH]c(-c3cncc(-c4cc(F)cc(C(N)=O)c4)c3N3CC[C@](C)(N)C3)nc12` [Compound 2-169, 3-{4-[(3S)-3-amino-3-methylpyrrolidin-1-yl]-5-{7-methyl-1H-imidazo[4,5-b]pyridin-2-yl}pyridin-3-yl}-5-fluorobenzamide] was tested, and the EC50 [2] was under 10 nM.

With `Cc1cc(C)c2nc(-c3cncc(-c4cccc(C#N)c4)c3N3CC[C@](C)(N)C3)[nH]c2n1` [Compound 2-173, 3-{4-[(3S)-3-amino-3-methylpyrrolidin-1-yl]-5-{5,7-dimethyl-1H-imidazo[4,5-b]pyridin-2-yl}pyridin-3-yl}benzonitrile] the EC50 [2] was under 10 nM.

Work on `Cc1cc(C)c2[nH]c(-c3cncc(-c4ccc(F)c(C#N)c4)c3N3CC[C@](C)(N)C3)nc2n1` [Compound 2-174, 5-{4-[(3S)-3-amino-3-methylpyrrolidin-1-yl]-5-{5,7-dimethyl-1H-imidazo[4,5-b]pyridin-2-yl}pyridin-3-yl}-2-fluorobenzonitrile] yielded an EC50 [2] of under 10 nM.

`C[C@]1(N)CCN(c2c(-c3ccc(F)c(C#N)c3)cncc2-c2nc3c(C#N)ccnc3[nH]2)C1` [Compound 2-176, 2-{4-[(3S)-3-amino-3-methylpyrrolidin-1-yl]-5-(3-cyano-4-fluorophenyl)pyridin-3-yl}-1H-imidazo[4,5-b]pyridine-7-carbonitrile] was tested, and the EC50 [2] was under 10 nM.

With `COc1ccc(-c2cncc(-c3nc4c(C#N)ccnc4[nH]3)c2N2CC[C@](C)(N)C2)cc1C#N` [Compound 2-179, 2-{4-[(3S)-3-mino-3-methylpyrrolidin-1-yl]-5-(3-cyano-4-methoxyphenyl)pyridin-3-yl}-1H-imidazo[4,5-b]pyridine-7-carbonitrile] the EC50 [2] was 10 to 100 nM.

In the case of `Cc1cc(F)cc(-c2cncc(-c3nc4c(F)cccc4[nH]3)c2N2CC[C@H](N)C2)c1` [Compound 2-193, (3S)-1-[3-(4-fluoro-1H-1,3-benzodiazol-2-yl)-5-(3-fluoro-5-methylphenyl)pyridin-4-yl]pyrrolidin-3-amine], the EC50 [1] is reported as 100 to 1000 nM.
